# Results taken from publication PMC3147293 (Cell host & microbe, 2011).
# Entries after “also recorded” stand apart in the source; their conditions may differ. Where no end group is shown, it is not given here.
# Key:
# [1] = target: CPAF (Chlamydia trachomatis serovar D, UniProt O84866); experiment: HPLC assay of CPAF cleavage of Abz-tagged vimentin-derived peptide; format: biochemical
# [2] = system: uninfected cells; experiment: Toxicity in uninfected cells; format: cell-based; details: data not shown
# [3] = system: proteasome; experiment: Proteasome function in uninfected cells; format: cell-based; details: data not shown
# [4] = system: Chlamydia-infected HeLa cells; experiment: Death of infected HeLa cells by flow cytometry of PI-stained cells; format: cell-based; details: anti-CPAF peptide at 12 hpi, with/without 40μM Z-VAD-FMK at 3 hpi
# [5] = system: recombinant CPAF; details: ~40 ng CPAF, 48μg GST-tagged Chlamydia proteins, 37°C, 20 min; Coomassie
# CPAF, sequence (O84866 276-601): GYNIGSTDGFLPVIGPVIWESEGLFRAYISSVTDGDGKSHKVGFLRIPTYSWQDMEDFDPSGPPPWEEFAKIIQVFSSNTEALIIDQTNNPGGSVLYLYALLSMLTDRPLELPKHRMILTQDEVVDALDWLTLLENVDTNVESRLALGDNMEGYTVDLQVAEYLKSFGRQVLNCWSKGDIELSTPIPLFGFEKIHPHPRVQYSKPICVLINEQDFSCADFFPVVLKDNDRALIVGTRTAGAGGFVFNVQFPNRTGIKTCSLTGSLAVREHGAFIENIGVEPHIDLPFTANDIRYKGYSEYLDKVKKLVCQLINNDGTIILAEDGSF
# CPAF, sequence (O84866 24-234): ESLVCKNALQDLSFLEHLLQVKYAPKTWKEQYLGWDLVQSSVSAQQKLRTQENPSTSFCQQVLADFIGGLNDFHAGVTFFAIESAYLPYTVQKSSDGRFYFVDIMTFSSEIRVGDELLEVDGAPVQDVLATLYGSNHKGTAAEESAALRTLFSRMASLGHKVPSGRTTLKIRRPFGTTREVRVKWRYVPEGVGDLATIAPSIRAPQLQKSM
Molecule,IC50 [1] [µM],toxicity in uninfected cells [2],alteration of proteasome function in uninfected cells [3],death of infected cells (PI staining) [4],inhibition of cleavage of GST-tagged substrates by recombinant CPAF [5]
SLFYSPMVPHFWAELRNHYATSGLKRRRRRRRRR [anti-CPAF peptide],0.05,did not induce any obvious toxicity,did not induce any obvious toxicity or alter proteasome function in uninfected cells,,
NFALSHFRLPLSTYKEMPYVSHWAGRRRRRRRRR [scrambled control peptide],,,,PI staining was not seen,but not a scrambled control peptide; also recorded: but not the scrambled control peptide
"CC(=O)N[C@@H](CSC(=O)[C@]1([C@@H](O)C(C)C)NC(=O)[C@H](C)[C@@H]1O)C(=O)O [Lactacystin, lactacystin, reference compound]",10,,,,
